Assay results taken from patent publication EP3431468B1, “USE OF ADIPONECTIN RECEPTOR AGONISTS IN TREATING DEPRESSION, ANXIETY AND NEUROINFLAMMATION” (CENTRE NATIONAL DE LA RECHERCHE SCIENTIFIQUE, priority 2017, dated 2019).

Assays:
Format in all cases: in vivo
[1] = system: corticosterone-treated mice; assay: Novelty Suppressed Feeding (NSF), chronic administration; details: chronic 1mg/kg ip daily
Procedure: (§1) Three well-established mouse models of depression-like behavior have been used in the present study namely i- the long-term corticosterone treatment in the drinking water (David, Samuels et al. 2009), ii- the peripheral administration of LPS (O'Connor, Lawson et al. 2009) iii- the ApN^-/- mice (Liu, Guo et al. 2012). For chronic AdipoRon treatment, the experimental protocol was as followed: • i- Five weeks old male mice (five/cage) received corticosterone (35mg/L dissolved in tap water containing 4 g/L CD) or vehicle alone ad libitum for during 7 consecutive weeks (David, Samuels et al. 2009). Corticosterone and vehicle solutions were changed every 3 days to prevent possible degradation. […]
(§2) All behavioral testing were conducted during the light phase (between 09:00 and 14:00 am) in compliance with the Institutional Animal Care and Use Committee of the University of Nice-Sophia Antipolis (permission number 010344.01 from the French "Ministère de l'Enseignement Supérieur et de la Recherche" granted to Dr. Joëlle Chabry). • Forced Swimming test (FST) - Mice were placed an inescapable transparent tank (20cm diameter, 30cm deep) filled with water (23°C ± 0.5) for six minutes as previously described by Porsolt et al. (1977). […] To initiate testing, mice were placed into the light side and activity was recorded for 5 minutes. […]

[2] = system: Kyn pathway; assay: Kynurenine pathway metabolites measurement in plasma; details: long-term corticosterone-treated mice, chronic AdipoRon treatment
Procedure: Data were digitized at 5-10 kHz using a Digidata interface coupled to a microcomputer running pClamp 9 (Axon Instruments, USA). Current-clamp data were digitized at 0.5 kHz using the same interface. Potentials were digitally filtered at 1-3 kHz. Average data were expressed as mean ± SEM, n = number of neurons, N = number of mice. • Western blot analysis - Total proteins were extracted from mouse hypothalamus by homogenization in lysis buffer (50mM Tris-HCl, pH7.5, 150mM NaCl, 5mM EDTA containing 0.5% Triton X-100 and 0.5% sodium deoxycholate with a coktail of protease and phosphatase inhibitors). Equal amounts of total proteins (50µg) determined by the Bradford method (BioRad) were separated onto 12% SDS-PAGE, then transferred on nitrocellulose membrane (Schleicher & Schuell, Dassel, Germany). […] IFNγ, IL1β, IL6, and TNFα, levels were measured using an electro-chemo-luminescence (ECL)-based assay (U-plex, MesoScaleDiscovery) following manufacturer instructions. Results were standardized according to the protein concentration of each sample determined by the Bradford method. • Kynurenine pathway metabolites measurement - Plasma levels of L-kynurenin (L-Kyn), tryptophan (Trp), kynurenin acid (Kyn ac), 5-HT and 5-HIAA were determined as follows: 25µl of plasma was deproteinated with 150µl of cold MeOH. […]

[3] = system: corticosterone-treated mice; assay: Light & Dark test (L&D), chronic administration; details: chronic 1mg/kg ip daily
Procedure: as §1, §2

[4] = vehicle-treated mice (no corticosterone)

For O=C(COc1ccc(C(=O)c2ccccc2)cc1)NC1CCN(Cc2ccccc2)CC1 [AdipoRon, 2-(4-Benzoylphenoxy)-N-[1-(phenylmethyl)-4-piperidinyl]-acetamide], the “latency to eat in the NSF” value ([1]; corticosterone-treated mice) was “reversed the effect of corticosterone”, the “latency to eat in the NSF” value [1, 4] was “no significant effect” and the “Kyn ac:L-Kyn ratio” value [2] was “restoring the physiological”. For the same compound, the “L-Kyn:Trp ratio” value [2] was “restoring the physiological”, the “time spent in the aversive light chamber (anxiety behavior)” value ([3]; corticosterone-treated mice) was “reversed the anxiety phenotype” and the “time spent in the aversive light chamber (anxiety behavior)” value [3, 4] was “without effect”.
